Results as given in ChEMBL document CHEMBL2440076, “New triarylpyrazoles as broad-spectrum anticancer agents: design, synthesis, and biological evaluation” (Eur J Med Chem, 2013).

Tests used:
Type in all cases: functional
[1] = tested on: A549; test: Growth inhibition of human A549/ATCC cells assessed as cell growth at 3X10'-9 M after 48 hrs by sulforhodamine B assay; conditions: A549, 48 h, read-out: Activity
[2] = tested on: NCI-H226; test: Growth inhibition of human NCI-H226 cells assessed as cell growth at 3X10'-6 M after 48 hrs by sulforhodamine B assay; conditions: NCI-H226, 48 h, read-out: Activity
[3] = tested on: MDA-MB-435; test: Growth inhibition of human MDA-MB-435 cells assessed as cell growth at 3X10'-5 M after 48 hrs by sulforhodamine B assay; conditions: MDA-MB-435, 48 h, read-out: Activity
[4] = tested on: UACC-257; test: Growth inhibition of human UACC257 cells assessed as cell growth at 3X10'-7 M after 48 hrs by sulforhodamine B assay; conditions: UACC-257, 48 h, read-out: Activity
[5] = tested on: SK-MEL-28; test: Growth inhibition of human SK-MEL-28 cells assessed as cell growth at 3X10'-6 M after 48 hrs by sulforhodamine B assay; conditions: SK-MEL-28, 48 h, read-out: Activity
[6] = tested on: MDA-MB-468; test: Growth inhibition of human MDA-MB-468 cells assessed as cell growth at 3X10'-7 M after 48 hrs by sulforhodamine B assay; conditions: MDA-MB-468, 48 h, read-out: Activity
[7] = tested on: UACC-257; test: Growth inhibition of human UACC257 cells assessed as cell growth at 3X10'-8 M after 48 hrs by sulforhodamine B assay; conditions: UACC-257, 48 h, read-out: Activity
[8] = tested on: U-251; test: Growth inhibition of human U251 cells assessed as cell growth at 3X10'-6 M after 48 hrs by sulforhodamine B assay; conditions: U-251, 48 h, read-out: Activity
[9] = tested on: HCT-15; test: Growth inhibition of human HCT15 cells assessed as cell growth at 3X10'-7 M after 48 hrs by sulforhodamine B assay; conditions: HCT-15, 48 h, read-out: Activity
[10] = tested on: OVCAR-8; test: Growth inhibition of human OVCAR8 cells assessed as cell growth at 3X10'-6 M after 48 hrs by sulforhodamine B assay; conditions: OVCAR-8, 48 h, read-out: Activity
[11] = tested on: A498; test: Growth inhibition of human A498 cells assessed as cell growth at 3X10'-6 M after 48 hrs by sulforhodamine B assay; conditions: A498, 48 h, read-out: Activity
[12] = tested on: NCI-H23; test: Growth inhibition of human NCI-H23 cells assessed as cell growth at 3X10'-9 M after 48 hrs by sulforhodamine B assay; conditions: NCI-H23, 48 h, read-out: Activity
[13] = tested on: HOP-62; test: Growth inhibition of human HOP62 cells assessed as cell growth at 3X10'-6 M after 48 hrs by sulforhodamine B assay; conditions: HOP-62, 48 h, read-out: Activity
[14] = tested on: DU-145; test: Growth inhibition of human DU145 cells assessed as cell growth at 3X10'-5 M after 48 hrs by sulforhodamine B assay; conditions: DU-145, 48 h, read-out: Activity
[15] = tested on: NCI-H226; test: Growth inhibition of human NCI-H226 cells assessed as cell growth at 3X10'-8 M after 48 hrs by sulforhodamine B assay; conditions: NCI-H226, 48 h, read-out: Activity
[16] = tested on: SNB-19; test: Growth inhibition of human SNB19 cells assessed as cell growth at 3X10'-7 M after 48 hrs by sulforhodamine B assay; conditions: SNB-19, 48 h, read-out: Activity
[17] = tested on: MDA-MB-468; test: Growth inhibition of human MDA-MB-468 cells assessed as cell growth at 3X10'-6 M after 48 hrs by sulforhodamine B assay; conditions: MDA-MB-468, 48 h, read-out: Activity
[18] = tested on: MDA-MB-468; test: Growth inhibition of human MDA-MB-468 cells assessed as cell growth at 3X10'-9 M after 48 hrs by sulforhodamine B assay; conditions: MDA-MB-468, 48 h, read-out: Activity
[19] = tested on: HCT-15; test: Growth inhibition of human HCT15 cells assessed as cell growth at 3X10'-6 M after 48 hrs by sulforhodamine B assay; conditions: HCT-15, 48 h, read-out: Activity
[20] = tested on: LOX IMVI; test: Growth inhibition of human LOXIMVI cells assessed as cell growth at 3X10'-9 M after 48 hrs by sulforhodamine B assay; conditions: read-out: Activity
[21] = tested on: CCRF-CEM; test: Growth inhibition of human CCRF-CEM cells assessed as cell growth at 3X10'-5 M after 48 hrs by sulforhodamine B assay; conditions: read-out: Activity
[22] = tested on: A549; test: Growth inhibition of human A549/ATCC cells assessed as cell growth at 3X10'-7 M after 48 hrs by sulforhodamine B assay; conditions: A549, 48 h, read-out: Activity
[23] = Growth inhibition of human Hs 578T cells assessed as cell growth at 3X10'-8 M after 48 hrs by sulforhodamine B assay; conditions: read-out: Activity
[24] = tested on: 786-0; test: Growth inhibition of human 786-0 cells assessed as cell growth at 3X10'-9 M after 48 hrs by sulforhodamine B assay; conditions: 786-0, 48 h, read-out: Activity
[25] = tested on: KM12; test: Growth inhibition of human KM12 cells assessed as cell growth at 3X10'-9 M after 48 hrs by sulforhodamine B assay; conditions: KM12, 48 h, read-out: Activity
[26] = tested on: HCT-116; test: Growth inhibition of human HCT116 cells assessed as cell growth at 3X10'-6 M after 48 hrs by sulforhodamine B assay; conditions: HCT-116, 48 h, read-out: Activity
[27] = tested on: HCT-116; test: Growth inhibition of human HCT116 cells assessed as cell growth at 3X10'-7 M after 48 hrs by sulforhodamine B assay; conditions: HCT-116, 48 h, read-out: Activity
[28] = tested on: SNB-19; test: Growth inhibition of human SNB19 cells assessed as cell growth at 3X10'-5 M after 48 hrs by sulforhodamine B assay; conditions: SNB-19, 48 h, read-out: Activity
[29] = tested on: MDA-MB-231; test: Growth inhibition of human MDA-MB-231 cells assessed as cell growth at 3X10'-5 M after 48 hrs by sulforhodamine B assay; conditions: MDA-MB-231, 48 h, read-out: Activity
[30] = tested on: UACC-62; test: Growth inhibition of human UACC62 cells assessed as cell growth at 3X10'-8 M after 48 hrs by sulforhodamine B assay; conditions: UACC-62, 48 h, read-out: Activity
[31] = tested on: SK-OV-3; test: Growth inhibition of human SKOV3 cells assessed as cell growth at 3X10'-5 M after 48 hrs by sulforhodamine B assay; conditions: SK-OV-3, 48 h, read-out: Activity
[32] = tested on: HCT-116; test: Growth inhibition of human HCT116 cells assessed as cell growth at 3X10'-5 M after 48 hrs by sulforhodamine B assay; conditions: HCT-116, 48 h, read-out: Activity
[33] = tested on: M14; test: Growth inhibition of human M14 cells assessed as cell growth at 3X10'-6 M after 48 hrs by sulforhodamine B assay; conditions: M14, 48 h, read-out: Activity
[34] = tested on: SNB-75; test: Growth inhibition of human SNB75 cells assessed as cell growth at 3X10'-7 M after 48 hrs by sulforhodamine B assay; conditions: SNB-75, 48 h, read-out: Activity
[35] = tested on: NCI-H322M; test: Growth inhibition of human NCI-H322M cells assessed as cell growth at 3X10'-9 M after 48 hrs by sulforhodamine B assay; conditions: read-out: Activity

COc1cc(-c2nn(-c3cccc(NC(=O)c4ccc(Cl)c(C(F)(F)F)c4)c3)cc2-c2ccncc2)ccc1Cl
growth at 0.003 µM [1]: 96% | growth at 3 µM [2]: 59% | growth at 30 µM [3]: -52% | growth at 0.3 µM [4]: 90% | growth at 3 µM [5]: 49% | growth at 0.3 µM [6]: 89% | growth at 0.03 µM [7]: 102% | growth at 3 µM [8]: 49% | growth at 0.3 µM [9]: 94% | growth at 3 µM [10]: 50% | growth at 3 µM [11]: 47% | growth at 0.003 µM [12]: 93% | growth at 3 µM [13]: 73% | growth at 30 µM [14]: 10% | growth at 0.03 µM [15]: 92% | growth at 0.3 µM [16]: 97% | growth at 3 µM [17]: 52% | growth at 0.003 µM [18]: 89% | growth at 3 µM [19]: 50% | growth at 0.003 µM [20]: 92% | growth at 30 µM [21]: 4% | growth at 0.3 µM [22]: 92% | growth at 0.03 µM [23]: 91% | growth at 0.003 µM [24]: 94% | growth at 0.003 µM [25]: 98% | growth at 3 µM [26]: 44% | growth at 0.3 µM [27]: 100% | growth at 30 µM [28]: 29% | growth at 30 µM [29]: 3% | growth at 0.03 µM [30]: 99% | growth at 30 µM [31]: 24% | growth at 30 µM [32]: 18% | growth at 3 µM [33]: 47% | growth at 0.3 µM [34]: 77% | growth at 0.003 µM [35]: 91%
